We go through eight molecules from patent US11497752B2, “Compounds and uses thereof” (Foghorn Therapeutics Inc., priority 2018, dated 2022).

In assay [1] the test system is uveal melanoma and hematologic cancer cell lines. Conditions: FIG. 1; 0 to 10 micromolar; uveal melanoma and hematologic cancer cell lines vs other tested cell lines.
Assay [2] concerns Uveal melanoma cell lines, 92-1 or MP41. Briefly: Comparison with clinical PKC and MEK inhibitors in uveal melanoma cell lines (Cell-titer glo, 3 days). In kind it is cell-based. The settings on record: FIG. 2, vs LXS196 and Selumetinib.
Another assay addresses BRG-1 (Homo sapiens, UniProt P51532). The experiment in a line: ATPase catalytic activity of BRG-1 (ADP-Glo in vitro biochemical assay). The settings on record: for BRG1 Max % Inhibition: Table 6. A general note: In ADP-Glo the light output rises with the ADP produced.
The target of another assay is BRM (Homo sapiens, UniProt P51531). The experiment in a line: ATPase catalytic activity of BRM (ADP-Glo in vitro biochemical assay). Conditions: for BRM Max % Inhibition: Table 6.
Sequence of BRM (P51531 whole entry): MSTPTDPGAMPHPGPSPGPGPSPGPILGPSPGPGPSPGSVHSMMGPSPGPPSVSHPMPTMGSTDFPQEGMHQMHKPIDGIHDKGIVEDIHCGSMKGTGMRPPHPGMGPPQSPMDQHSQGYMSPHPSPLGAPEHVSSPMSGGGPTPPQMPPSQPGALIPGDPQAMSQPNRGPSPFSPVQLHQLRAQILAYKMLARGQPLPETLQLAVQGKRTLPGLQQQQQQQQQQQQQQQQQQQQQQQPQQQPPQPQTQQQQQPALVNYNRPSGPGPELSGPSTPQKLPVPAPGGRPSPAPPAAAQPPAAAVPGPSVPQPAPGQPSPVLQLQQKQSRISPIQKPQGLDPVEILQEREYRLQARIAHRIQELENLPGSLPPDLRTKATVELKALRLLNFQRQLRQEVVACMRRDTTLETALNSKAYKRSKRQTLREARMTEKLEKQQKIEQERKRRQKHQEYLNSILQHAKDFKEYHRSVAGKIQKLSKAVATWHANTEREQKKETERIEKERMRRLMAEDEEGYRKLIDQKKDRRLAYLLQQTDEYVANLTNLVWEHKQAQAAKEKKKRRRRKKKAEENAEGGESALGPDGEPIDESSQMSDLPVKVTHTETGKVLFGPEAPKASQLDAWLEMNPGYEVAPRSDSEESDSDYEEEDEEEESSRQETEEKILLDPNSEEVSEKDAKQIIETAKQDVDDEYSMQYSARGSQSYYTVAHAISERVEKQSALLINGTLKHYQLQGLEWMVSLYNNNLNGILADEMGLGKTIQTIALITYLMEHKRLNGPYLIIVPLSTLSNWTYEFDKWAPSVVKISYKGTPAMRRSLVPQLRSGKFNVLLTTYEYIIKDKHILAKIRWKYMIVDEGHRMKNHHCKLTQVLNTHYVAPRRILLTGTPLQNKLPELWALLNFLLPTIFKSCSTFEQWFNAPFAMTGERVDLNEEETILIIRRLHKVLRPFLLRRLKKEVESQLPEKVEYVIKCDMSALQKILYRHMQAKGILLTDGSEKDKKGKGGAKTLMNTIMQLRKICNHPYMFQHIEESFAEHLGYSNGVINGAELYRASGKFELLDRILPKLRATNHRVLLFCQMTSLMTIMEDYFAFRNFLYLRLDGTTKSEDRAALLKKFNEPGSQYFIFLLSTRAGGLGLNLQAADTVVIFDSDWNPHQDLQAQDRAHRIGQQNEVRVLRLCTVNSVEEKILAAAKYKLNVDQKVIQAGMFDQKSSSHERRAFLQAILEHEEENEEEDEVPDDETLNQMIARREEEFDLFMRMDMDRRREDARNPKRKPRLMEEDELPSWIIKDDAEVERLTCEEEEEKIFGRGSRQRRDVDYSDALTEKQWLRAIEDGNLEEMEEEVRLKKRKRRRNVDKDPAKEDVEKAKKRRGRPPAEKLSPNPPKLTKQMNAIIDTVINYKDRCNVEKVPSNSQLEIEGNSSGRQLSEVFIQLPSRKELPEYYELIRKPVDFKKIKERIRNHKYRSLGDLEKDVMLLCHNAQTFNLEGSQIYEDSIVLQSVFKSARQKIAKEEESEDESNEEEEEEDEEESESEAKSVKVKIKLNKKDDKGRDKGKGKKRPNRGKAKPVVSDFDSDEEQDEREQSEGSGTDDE

Sequence of BRG-1 (P51532 whole entry): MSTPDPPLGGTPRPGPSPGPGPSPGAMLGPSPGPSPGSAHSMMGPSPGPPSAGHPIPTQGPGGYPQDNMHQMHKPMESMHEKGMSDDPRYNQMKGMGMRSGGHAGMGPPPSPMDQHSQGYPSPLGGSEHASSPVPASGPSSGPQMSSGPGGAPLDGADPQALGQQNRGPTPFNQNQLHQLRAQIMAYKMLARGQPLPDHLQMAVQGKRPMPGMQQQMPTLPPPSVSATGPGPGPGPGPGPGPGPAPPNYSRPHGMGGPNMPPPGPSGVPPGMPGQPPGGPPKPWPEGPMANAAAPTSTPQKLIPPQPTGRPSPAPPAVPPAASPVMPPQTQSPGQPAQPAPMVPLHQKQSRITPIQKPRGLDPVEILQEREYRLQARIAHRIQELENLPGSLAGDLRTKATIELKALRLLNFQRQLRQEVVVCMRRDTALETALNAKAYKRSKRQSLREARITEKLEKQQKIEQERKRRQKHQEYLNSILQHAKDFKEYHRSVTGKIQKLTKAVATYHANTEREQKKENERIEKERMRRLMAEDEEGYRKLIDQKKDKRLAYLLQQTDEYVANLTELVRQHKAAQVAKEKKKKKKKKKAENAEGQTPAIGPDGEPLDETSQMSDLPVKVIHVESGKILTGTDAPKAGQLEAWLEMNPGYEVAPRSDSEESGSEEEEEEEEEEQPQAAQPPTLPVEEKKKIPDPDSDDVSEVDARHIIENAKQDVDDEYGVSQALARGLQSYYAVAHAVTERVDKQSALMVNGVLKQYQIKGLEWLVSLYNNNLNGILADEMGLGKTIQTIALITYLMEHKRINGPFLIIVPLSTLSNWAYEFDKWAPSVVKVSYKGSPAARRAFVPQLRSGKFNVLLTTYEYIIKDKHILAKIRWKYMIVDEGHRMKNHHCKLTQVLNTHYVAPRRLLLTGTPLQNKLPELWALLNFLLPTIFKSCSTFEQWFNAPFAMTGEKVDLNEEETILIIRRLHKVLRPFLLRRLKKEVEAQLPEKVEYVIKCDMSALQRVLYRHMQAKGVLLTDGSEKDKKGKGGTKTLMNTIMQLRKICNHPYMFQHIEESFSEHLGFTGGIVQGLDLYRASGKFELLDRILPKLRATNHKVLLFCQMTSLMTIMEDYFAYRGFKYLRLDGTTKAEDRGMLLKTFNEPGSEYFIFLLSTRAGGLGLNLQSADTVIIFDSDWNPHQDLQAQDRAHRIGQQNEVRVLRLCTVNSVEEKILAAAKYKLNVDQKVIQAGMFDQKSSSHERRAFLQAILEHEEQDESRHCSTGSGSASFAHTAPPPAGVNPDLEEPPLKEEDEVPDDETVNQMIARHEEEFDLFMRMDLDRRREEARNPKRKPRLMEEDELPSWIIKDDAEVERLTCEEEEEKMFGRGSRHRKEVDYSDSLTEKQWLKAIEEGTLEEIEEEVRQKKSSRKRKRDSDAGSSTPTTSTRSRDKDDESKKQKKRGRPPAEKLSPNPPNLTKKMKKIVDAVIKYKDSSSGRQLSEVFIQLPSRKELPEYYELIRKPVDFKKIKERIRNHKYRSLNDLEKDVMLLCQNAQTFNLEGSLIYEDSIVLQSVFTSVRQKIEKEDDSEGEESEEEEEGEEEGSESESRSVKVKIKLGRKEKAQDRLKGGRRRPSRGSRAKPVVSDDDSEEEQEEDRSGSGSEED

As for `CSCC[C@H](NC(=O)c1ccc(N)cc1)C(=O)Nc1nc(-c2cccc(-c3ccncc3)c2)cs1` [Compound 87, (S)-4-amino-N-(4-(methylthio)-1-oxo-1-((4-(3-(pyridin-4-yl)phenyl)thiazol-2-yl)amino)butan-2-yl)benzamide], the “sensitivity of cell lines to growth inhibition (GI50)” value in assay [1] was “more sensitive to BRG1/BRM inhibition than the other tested cell lines”. Moreover, the “growth inhibition of uveal melanoma cells” value in assay [2] (0 to 10 micromolar, 3 days) was “comparable growth inhibition of uveal melanoma cells as the clinical PKC and MEK inhibitors”. Moreover, in assay [2], the onset of inhibition entry was “faster onset of inhibition than the clinical PKC and MEK inhibitors”.
Consider `CC(OC1CCOCC1)c1cccc(-c2csc(NC(=O)CNC(=O)c3ccc(N)cc3)n2)c1` (stereo not shown) [Compound 235, 4-amino-N-[2-oxo-2-[[4-[3-(1-tetrahydropyran-4-yloxyethyl)phenyl]thiazol-2-yl]amino]ethyl]benzamide], for which, at BRG-1, the IC50 lay within 100 to 1000 nM and the “BRG1 Max % Inhibition” value is above 70%. In addition, on BRM, the IC50 is 100 to 1000 nM and the “BRM Max % Inhibition” value is above 90%.
Take `Nc1ccc(C(=O)NCC(=O)Nc2nc(-c3cccc(N4CCC[C@H](O)C4)c3)cs2)cc1` [Compound 236, 4-amino-N-[2-[[4-[3-[(3S)-3-hydroxy-1-piperidyl]phenyl]thiazol-2-yl]amino]-2-oxo-ethyl]benzamide]: on BRG-1, the IC50 fell in the range of 100 to 1000 nM and the “BRG1 Max % Inhibition” value is above 90%. Besides, at BRM, the IC50 lay in the range of 100 to 1000 nM and the “BRM Max % Inhibition” value is recorded as above 90%.
On to `CSCC[C@H](NC(=O)c1ccc(N)cc1)C(=O)Nc1nc(-c2cccc(-c3cccc(CN)c3)c2)cs1` [Compound 237, 4-amino-N-[(1S)-1-[[4-[3-[3-(aminomethyl)phenyl]phenyl]thiazol-2-yl]carbamoyl]-3-methylsulfanyl-propyl]benzamide], for which, at BRG-1, the IC50 fell in the range of 100 to 1000 nM and the “BRG1 Max % Inhibition” value is listed as above 90%. Also, at BRM, the IC50 fell in the range of 100 to 1000 nM and the “BRM Max % Inhibition” value was above 90%.
In the case of `CO[C@H]1CCCN(c2cccc(-c3csc(NC(=O)CNC(=O)c4ccc(N)cc4)n3)c2)C1` [Compound 238, 4-amino-N-[2-[[4-[3-[(3S)-3-methoxy-1-piperidyl]phenyl]thiazol-2-yl]amino]-2-oxo-ethyl]benzamide], at BRG-1, the IC50 was in the range of 100 to 1000 nM and the “BRG1 Max % Inhibition” value was above 95%. Moreover, at BRM, the IC50 was 100 to 1000 nM and the “BRM Max % Inhibition” value is reported as above 90%.
`Nc1ccc(C(=O)NCC(=O)Nc2nc(-c3cccc(C4CCCCO4)c3)cs2)cc1` (stereo not shown) [Compound 239, 4-amino-N-[2-oxo-2-[[4-(3-tetrahydropyran-2-ylphenyl)thiazol-2-yl]amino]ethyl]benzamide]: at BRG-1, the IC50 was in the range of 100 to 1000 nM and the “BRG1 Max % Inhibition” value is listed as above 80%. In addition, on BRM, the IC50 fell in the range of 100 to 1000 nM and the “BRM Max % Inhibition” value is recorded as above 90%.
For `Nc1ccc(C(=O)NCC(=O)Nc2nc(-c3ccc4cncnc4c3)cs2)cc1` [Compound 240, 4-amino-N-[2-oxo-2-[(4-quinazolin-7-ylthiazol-2-yl)amino]ethyl]benzamide], at BRG-1, the IC50 lay within 100 to 1000 nM and the “BRG1 Max % Inhibition” value was above 80%. Moreover, on BRM, the IC50 lay in the range of 100 to 1000 nM and the “BRM Max % Inhibition” value was above 80%.
For `CC(C)(N)Cn1ccc(-c2cccc(-c3csc(NC(=O)CNC(=O)c4ccc(N)cc4)n3)c2)n1` [Compound 241, 4-amino-N-[2-[[4-[3-[1-(2-amino-2-methyl-propyl)pyrazol-3-yl]phenyl]thiazol-2-yl]amino]-2-oxo-ethyl]benzamide], on BRG-1, the IC50 fell in the range of 100 to 1000 nM and the “BRG1 Max % Inhibition” value is above 90%. Also, at BRM, the IC50 was in the range of 100 to 1000 nM and the “BRM Max % Inhibition” value is reported as above 90%.

By IC50 is commonly meant the concentration that gives 50% inhibition. Higher therefore signals a need for much substance.
